Measurements from US20240270751A1, “Pyrazolopyridinone Compounds” (BeiGene Ltd., priority 2021, published 2024).

Columns and labels:
DGKα = DGKα (Homo sapiens (Human), UniProt P23743); assay: Biochemical DGK IC50 assay, DGKα ADP-Glo assay; conditions: 7.5 nM enzyme, 140 μM ATP, 80 μM DAG
Method in brief: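 ADP-Glo read-out with full-length DGKα on DAG/PS lipid micelle substrate in 25 mM HEPES pH 7.0, 0.5 mM EDTA, 160 mM octyl β-D-glucopyranoside. Compound final concentrations spanned 1.55˜10000 nM or 23.3˜150000 nM.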

DGKζ = DGKζ (Homo sapiens (Human), UniProt Q13574); assay: Biochemical DGK IC50 assay, DGKζ ADP-Glo assay; conditions: 0.5 nM enzyme, 140 μM ATP, 80 μM DAG; read-out: DGKζ ADP-Glo assay IC50
Sequence of DGKζ (Q13574 other isoform, or with tags, fused parts or gaps): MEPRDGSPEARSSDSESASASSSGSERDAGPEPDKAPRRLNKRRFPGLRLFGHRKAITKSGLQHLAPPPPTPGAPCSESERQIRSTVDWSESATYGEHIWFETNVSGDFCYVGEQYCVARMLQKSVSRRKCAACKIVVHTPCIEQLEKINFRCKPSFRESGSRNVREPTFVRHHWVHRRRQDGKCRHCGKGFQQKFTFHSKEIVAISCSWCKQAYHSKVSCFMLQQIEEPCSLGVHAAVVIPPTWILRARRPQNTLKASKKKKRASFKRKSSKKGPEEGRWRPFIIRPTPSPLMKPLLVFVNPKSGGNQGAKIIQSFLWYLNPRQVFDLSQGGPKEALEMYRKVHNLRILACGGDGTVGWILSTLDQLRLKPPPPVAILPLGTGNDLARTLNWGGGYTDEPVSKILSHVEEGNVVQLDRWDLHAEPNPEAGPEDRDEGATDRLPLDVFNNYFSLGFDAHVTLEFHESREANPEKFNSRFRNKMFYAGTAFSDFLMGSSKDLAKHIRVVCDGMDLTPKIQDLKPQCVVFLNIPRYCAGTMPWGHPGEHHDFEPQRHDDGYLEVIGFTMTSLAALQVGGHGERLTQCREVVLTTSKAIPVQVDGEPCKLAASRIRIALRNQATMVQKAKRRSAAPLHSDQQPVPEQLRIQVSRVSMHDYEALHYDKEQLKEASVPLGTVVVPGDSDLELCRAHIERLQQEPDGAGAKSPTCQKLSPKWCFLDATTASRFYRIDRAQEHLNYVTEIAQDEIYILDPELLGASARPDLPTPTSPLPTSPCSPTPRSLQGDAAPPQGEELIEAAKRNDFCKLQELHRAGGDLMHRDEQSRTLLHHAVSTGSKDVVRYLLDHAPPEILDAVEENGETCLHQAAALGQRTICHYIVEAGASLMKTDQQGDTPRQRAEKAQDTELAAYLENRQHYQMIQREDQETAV
Method in brief: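 Full-length human DGKζ, His-TEV tagged and purified from baculovirus-infected Sf9 cells, assayed by ADP-Glo with DAG/PS lipid micelle substrate prepared in 25 mM HEPES pH 7.0 with octyl glucoside. Final compound concentrations spanned 1.55–10000 nM or 23.3–150000 nM.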

Sequence of DGKα (P23743 whole entry): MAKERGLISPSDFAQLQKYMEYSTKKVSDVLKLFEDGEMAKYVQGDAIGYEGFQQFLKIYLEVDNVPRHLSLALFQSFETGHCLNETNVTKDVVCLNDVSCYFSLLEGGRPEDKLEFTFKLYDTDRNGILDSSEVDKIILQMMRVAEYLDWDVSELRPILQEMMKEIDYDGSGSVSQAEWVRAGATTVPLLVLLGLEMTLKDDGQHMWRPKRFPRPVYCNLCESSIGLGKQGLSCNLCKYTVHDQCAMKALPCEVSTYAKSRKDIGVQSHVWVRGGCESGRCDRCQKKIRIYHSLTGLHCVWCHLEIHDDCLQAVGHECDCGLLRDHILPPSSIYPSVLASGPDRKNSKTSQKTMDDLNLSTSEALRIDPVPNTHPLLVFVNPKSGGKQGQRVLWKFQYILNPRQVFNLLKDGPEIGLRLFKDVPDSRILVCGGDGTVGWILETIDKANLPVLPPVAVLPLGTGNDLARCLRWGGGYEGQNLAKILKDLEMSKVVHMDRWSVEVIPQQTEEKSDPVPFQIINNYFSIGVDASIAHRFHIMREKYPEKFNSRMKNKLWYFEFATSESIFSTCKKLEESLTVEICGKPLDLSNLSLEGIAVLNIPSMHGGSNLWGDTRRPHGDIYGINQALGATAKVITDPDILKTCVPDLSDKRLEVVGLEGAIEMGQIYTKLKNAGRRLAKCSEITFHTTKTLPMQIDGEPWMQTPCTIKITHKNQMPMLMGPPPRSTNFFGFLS

IC50 (DGKα)	IC50 (DGKζ)	SMILES
5360 nM	361 nM	CCC(c1ccc(C(C)(C)C#N)cc1)N1C[C@H](CC)N(c2cc(=O)n(C)c3cn(CC#N)nc23)C[C@H]1CC (stereo partly drawn) [Compound A339, 2-(4-(1-((2R,5S)-4-(2-(cyanomethyl)-4-methyl-5-oxo-4,5-dihydro-2H-pyrazolo[4,3-b]pyridin-7-yl)-2,5-diethylpiperazin-1-yl)propyl)phenyl)-2-methylpropanenitrile]
485 nM	248 nM	CC[C@H]1CN(C(C)c2ccc(C)cc2F)[C@H](CC)CN1c1cc(=O)n(C)c2cn(CC#N)nc12 (stereo partly shown) [Compound A340]
229 nM	353 nM	CC[C@H]1CN(C(C)c2ccc(CN3CCOC(C)(C)C3)cc2)[C@H](CC)CN1c1cc(=O)n(C)c2cn(CC#N)nc12 (stereo partly shown) [Compound A342]
246 nM	675 nM	CC[C@H]1CN(C(C)c2ccc(CN3C[C@@H](C)O[C@@H](C)C3)cc2)[C@H](CC)CN1c1cc(=O)n(C)c2cn(CC#N)nc12 (stereo partly drawn) [Compound A343, 2-(7-((2S,5R)-4-(1-(4-(((2S,6R)-2,6-dimethylmorpholino)methyl)phenyl)ethyl)-2,5-diethylpiperazin-1-yl)-4-methyl-5-oxo-4,5-dihydro-2H-pyrazolo[4,3-b]pyridin-2-yl)acetonitrile]
108 nM	198 nM	CC[C@H]1CN(C(C)c2ccc(CN3CCC(F)(F)CC3)cc2)[C@H](CC)CN1c1cc(=O)n(C)c2cn(CC#N)nc12 (stereo partly shown) [Compound A344]
852 nM	205 nM	CC[C@H]1CN(C(C)c2ccc(C(C)(C)C#N)cc2F)[C@H](CC)CN1c1cc(=O)n(C)c2cn(CC#N)nc12 (stereo partly drawn) [Compound A345, 2-(4-(1-((2R,5S)-4-(2-(cyanomethyl)-4-methyl-5-oxo-4,5-dihydro-2H-pyrazolo[4,3-b]pyridin-7-yl)-2,5-diethylpiperazin-1-yl)ethyl)-3-fluorophenyl)-2-methylpropanenitrile]
945 nM	249 nM	CC[C@H]1CN(C(C)c2ccc(C3CC3)nc2)[C@H](CC)CN1c1cc(=O)n(C)c2cn(CC#N)nc12 (stereo partly drawn) [Compound A350, 2-(7-((2S,5R)-4-(1-(6-cyclopropylpyridin-3-yl)ethyl)-2,5-diethylpiperazin-1-yl)-4-methyl-5-oxo-4,5-dihydro-2H-pyrazolo[4,3-b]pyridin-2-yl)acetonitrile]
166 nM	55 nM	CC[C@H]1CN(C(C)c2ccc(C)c(C)n2)[C@H](CC)CN1c1cc(=O)n(C)c2cn(CC#N)nc12 (stereo partly shown) [Compound A363]
794 nM	4710 nM	CC[C@H]1CN(C(C)c2ccc(C)nn2)[C@H](CC)CN1c1cc(=O)n(C)c2cn(CC#N)nc12 (stereo partly shown) [Compound A365]
21800 nM	3220 nM	CC[C@@H]1CN(c2cc(=O)n(C)c3cn(CC#N)nc23)[C@@H](CC)CN1C(=O)c1ccc2cccnc2c1 [Compound A373]
618 nM	51 nM	CC[C@@H]1CN(c2cc(=O)n(C)c3cn(CC#N)nc23)[C@@H](CC)CN1C(=O)c1cnc2ccccc2n1 [Compound A374]
294 nM	571 nM	CC[C@H]1CN(C(C)c2ccc(OCC3COC3)cc2)[C@H](CC)CN1c1cc(=O)n(C)c2cn(CC#N)nc12 (stereo partly shown) [Compound A379]
161 nM	667 nM	CC[C@H]1CN(C(C)c2ccc(OC3CCOCC3)cc2)[C@H](CC)CN1c1cc(=O)n(C)c2cn(CC#N)nc12 (stereo partly shown) [Compound A380]
79 nM	499 nM	CC[C@H]1CN(C(C)c2ccc(C(=O)N3CCC(F)(F)CC3)cc2)[C@H](CC)CN1c1cc(=O)n(C)c2cn(CC#N)nc12 (stereo partly shown) [Compound A382]
1750 nM	99 nM	CC[C@H]1CN(C(C)c2ccc(C)c(C)c2)[C@H](CC)CN1c1cc(=O)n(C)c2cn(CC#N)nc12 (stereo partly shown) [Compound A384]
43 nM	201 nM	CC[C@H]1CN(C(C)c2cc3ccccn3n2)[C@H](CC)CN1c1cc(=O)n(C)c2cn(CC#N)nc12 (stereo partly shown) [Compound A389]
222 nM	272 nM	CC#CCn1cc2c(n1)c(N1C[C@@H](CC)N(C(C)c3ccc4cccnc4c3)C[C@@H]1C)cc(=O)n2C (stereo partly shown) [Compound A395]

The remaining lines, values behind:

SMILES	IC50 (DGKα)	IC50 (DGKζ)
CC(c1ccc(CN2CCOC(C)(C)C2)cc1)N1C[C@H](C)N(c2cc(=O)n(C)c3cn(CC#N)nc23)C[C@H]1C (stereo partly drawn) [Compound A341, 2-(7-((2S,5R)-4-(1-(4-((2,2-dimethylmorpholino)methyl)phenyl)ethyl)-2,5-dimethylpiperazin-1-yl)-4-methyl-5-oxo-4,5-dihydro-2H-pyrazolo[4,3-b]pyridin-2-yl)acetonitrile]	1620 nM	4250 nM
CC[C@H]1CN(C(C)c2ccc(C)cn2)[C@H](CC)CN1c1cc(=O)n(C)c2cn(CC#N)nc12 (stereo partly shown) [Compound A346]	29 nM	556 nM
CC[C@H]1CN(C(C)c2ccc3c(n2)C(C)(C)CO3)[C@H](CC)CN1c1cc(=O)n(C)c2cn(CC#N)nc12 (stereo partly drawn) [Compound A352, 2-(7-((2S,5R)-4-(1-(3,3-dimethyl-2,3-dihydrofuro[3,2-b]pyridin-5-yl)ethyl)-2,5-diethylpiperazin-1-yl)-4-methyl-5-oxo-4,5-dihydro-2H-pyrazolo[4,3-b]pyridin-2-yl)acetonitrile]	5400 nM	6 nM
CC[C@H]1CN(C(C)c2cnc(C)cn2)[C@H](CC)CN1c1cc(=O)n(C)c2cn(CC#N)nc12 (stereo partly shown) [Compound A356]	635 nM	1570 nM
CC[C@H]1CN(C(C)c2cnc(OC(C)C)cc2F)[C@H](CC)CN1c1cc(=O)n(C)c2cn(CC#N)nc12 (stereo partly shown) [Compound A358]	5830 nM	373 nM
CC[C@H]1CN(C(C)c2ncc(C)cc2F)[C@H](CC)CN1c1cc(=O)n(C)c2cn(CC#N)nc12 (stereo partly shown) [Compound A359]	117 nM	299 nM
CC[C@H]1CN(C(C)c2ccc(OC(F)(F)F)cn2)[C@H](CC)CN1c1cc(=O)n(C)c2cn(CC#N)nc12 (stereo partly shown) [Compound A361]	5.1 nM	554 nM
CC[C@H]1CN(C(C)c2ccc(C)c(OC)n2)[C@H](CC)CN1c1cc(=O)n(C)c2cn(CC#N)nc12 (stereo partly shown) [Compound A364]	2520 nM	288 nM
CC[C@H]1CN(C(C)c2ccc3cc(C)ncc3c2)[C@H](CC)CN1c1cc(=O)n(C)c2cn(CC#N)nc12 (stereo partly shown) [Compound A366]	366 nM	644 nM
CC[C@H]1CN(C(C)c2cc3ccccc3c(C)n2)[C@H](CC)CN1c1cc(=O)n(C)c2cn(CC#N)nc12 (stereo partly shown) [Compound A367]	19300 nM	3590 nM
CC[C@@H]1CN(c2cc(=O)n(C)c3cn(CC#N)nc23)[C@@H](CC)CN1C(=O)c1ccc(C2CC2)cc1 [Compound A369]	294 nM	1090 nM
CC[C@@H]1CN(c2cc(=O)n(C)c3cn(CC#N)nc23)[C@@H](CC)CN1C(=O)c1ccc(C)cn1 [Compound A370]	363 nM	> 10000 nM
CC[C@@H]1CN(c2cc(=O)n(C)c3cn(CC#N)nc23)[C@@H](CC)CN1C(=O)c1cc2cnccc2cn1 [Compound A371]	717 nM	> 10000 nM
CC[C@@H]1CN(c2cc(=O)n(C)c3cn(CC#N)nc23)[C@@H](CC)CN1C(=O)c1cc2ccccc2cn1 [Compound A372]	127 nM	3450 nM
CC[C@H]1CN(C(C)c2ccc(OC3CCOC3)cc2)[C@H](CC)CN1c1cc(=O)n(C)c2cn(CC#N)nc12 (stereo partly drawn) [Compound A375, 2-(7-((2S,5R)-2,5-diethyl-4-(1-(4-((tetrahydrofuran-3-yl)oxy)phenyl)ethyl)piperazin-1-yl)-4-methyl-5-oxo-4,5-dihydro-2H-pyrazolo[4,3-b]pyridin-2-yl)acetonitrile]	200 nM	944 nM
CC[C@H]1CN(C(C)c2ccc(OCC3CCOC3)cc2)[C@H](CC)CN1c1cc(=O)n(C)c2cn(CC#N)nc12 (stereo partly shown) [Compound A376]	206 nM	602 nM
CC[C@H]1CN(C(C)c2ccc(OC)cc2)[C@H](CC)CN1c1cc(=O)n(C)c2cn(CC#N)nc12 (stereo partly shown) [Compound A377]	94 nM	173 nM
CC[C@H]1CN(C(C)c2cc(C)c(C)cn2)[C@H](CC)CN1c1cc(=O)n(C)c2cn(CC#N)nc12 (stereo partly shown) [Compound A385]	481 nM	498 nM
CC[C@H]1CN(C(C)c2ccc(C(C)(C)C#N)cn2)[C@H](CC)CN1c1cc(=O)n(C)c2cn(CC#N)nc12 (stereo partly shown) [Compound A386]	689 nM	418 nM
CC[C@H]1CN(C(C)c2ncc(OC(C)C)cc2F)[C@H](CC)CN1c1cc(=O)n(C)c2cn(CC#N)nc12 (stereo partly shown) [Compound A387]	75000 nM	4890 nM
CC[C@H]1CN(C(C)c2cn3ccccc3n2)[C@H](CC)CN1c1cc(=O)n(C)c2cn(CC#N)nc12 (stereo partly shown) [Compound A388]	1390 nM	1250 nM
CC#CCn1cc2c(n1)c(N1C[C@@H](C)N(C(C)c3ccc4c(c3)OC(C)(C)O4)C[C@@H]1C)cc(=O)n2C (stereo partly drawn) [Compound A390, 2-(but-2-yn-1-yl)-7-((2S,5R)-4-(1-(2,2-dimethylbenzo[d][1,3]dioxol-5-yl)ethyl)-2,5-dimethylpiperazin-1-yl)-4-methyl-2,4-dihydro-5H-pyrazolo[4,3-b]pyridin-5-one]	4580 nM	490 nM
CC#CCn1cc2c(n1)c(N1C[C@@H](C)N(C(C)c3ccc4c(c3)OC(F)(F)O4)C[C@@H]1C)cc(=O)n2C (stereo partly shown) [Compound A391]	1180 nM	1650 nM
CC#CCn1cc2c(n1)c(N1C[C@@H](CC)N(C(C)c3cc4ccccc4cn3)C[C@@H]1C)cc(=O)n2C (stereo partly drawn) [Compound A393, 2-(but-2-yn-1-yl)-7-((2S,5R)-5-ethyl-4-(1-(isoquinolin-3-yl)ethyl)-2-methylpiperazin-1-yl)-4-methyl-2,4-dihydro-5H-pyrazolo[4,3-b]pyridin-5-one]	108 nM	795 nM
